# Source: article PMC10777851, “SMT-738: a novel small-molecule inhibitor of bacterial lipoprotein transport targeting Enterobacteriaceae” (Antimicrobial Agents and Chemotherapy, 2023)
# Tests used:
# [1] = system: KPM (K. pneumoniae NCTC 13438); assay: Frequency of resistance determination, K. pneumoniae; assay type: cell-based, Klebsiella pneumoniae; conditions: for LoD Range: experiments with no colonies observed; for FoR Range: experiments with colonies observed
# Procedure: (§1) The FoR of bacterial strains to test compounds was determined by plating aliquots of overnight cultures onto MH-agar plates containing dilutions of the test compound at various multiples of reference MIC as previously determined. Total viable counts of the overnight cultures were determined by spotting 10–20 µL of decimal dilutions in 1× phosphate-buffered saline (PBS) onto non-selective agar. Assay plates were incubated for up to 48 h with colonies being enumerated every 24 h. FoR was determined by dividing the number of colonies observed by the total number of viable cells plated. Representative colonies were then picked and streaked onto selective agar to confirm resistance and obtain resistant isolates. Isolates growing on selective agar were then used to initiate overnight cultures, bacteria pelleted by centrifugation, supernatant removed, and pellets stored at −80°C for subsequent DNA extraction and whole-genome sequencing. Genomic DNA was extracted using the DNeasy Blood and Tissue Kit (Qiagen), quantified using the Quant-iT TM PicoGreen TM dsDNA Assay Kit (Thermo Fisher Scientific), and normalized to 0.2 ng/µL in nuclease-free water. Library preparation and barcode addition were with the Nextera XT DNA Library Prep Kit (Illumina). KAPA Pure beads (Roche) were used for DNA purification. Samples were pooled to achieve 100× coverage of each sample and run on an Illumina Nextseq 500/550 Mid Output Kit v2.5 (150 cycles) (Illumina).
# [2] = system: anaerobic gut commensals such as Actinomyces sp., Bacteroides sp., Clostridioides sp., Bifidobacterium sp., Peptostreptococcus sp., and Veillonella sp.; assay: MIC, panel of 100 bacterial species: anaerobic gut commensals; assay type: cell-based
# Procedure: MIC tests were performed by broth microdilution in-line with CLSI susceptibility testing standards ([20], [21]) either in-house or at IHMA (Europe and USA) or JMI Laboratories using cation-adjusted Mueller Hinton Broth.
# [3] = Solubility in formulation vehicle; assay type: physicochemical; conditions: 20% Hydroxypropyl-β-cyclodextrin or phosphate buffer pH 6.0
# E. coli NCTC 13441 = assay: Time-kill experiment, E. coli; assay type: cell-based, Escherichia coli; conditions: 2× and 4× the MIC
# Procedure: (§2) An overnight culture of the test strain was diluted to a viable cell density of ~10^6 CFU/mL and dispensed into 96-well plates containing dilutions of SMT-738 to yield the specified multiple of the MIC. Plates were sealed with a breathable seal and incubated under shaking conditions in a humid incubator at 37°C. At specific timepoints (t = 0, 1, 2, 4, 6, 8, and 24 h), samples were taken and plated onto MH agar plates, and colonies enumerated after overnight growth at 37°C. Viable cell numbers as log10 (CFU/mL) were then plotted against time. Where no colonies were detected, the limit of detection was 100 CFU/mL. Compound activity was scored as bactericidal if the viable cell count decreased by at least 3 log10 from the initial count.
# HEK293 = assay: Cytotoxicity (CellTiter-Glo), HEK293; assay type: cell-based; conditions: HEK293, 24 h
# Procedure: HepG2 (ATCC, HB-8065) and HEK293 (ATCC, CRL-1573) were sourced from ATCC. For the cytotoxicity assay, cells were seeded onto 96-well plates, which were then incubated for 24 h in a 5% CO2 incubator at 37°C. On the day of the assay, 10-point, twofold serial dilutions of test compound were prepared in assay media (MEM + 10% FBS) in separate 96-well plates. Assay plates were removed from the incubator, and the media from all of the wells were removed, taking care not to disturb the cell layer. Compound-containing assay media or control media were added to the relevant wells. Assay plates were returned to the 5% CO2 incubator at 37°C for 24 h. CellTiter-Glo reagent (Promega, G7570) was used to determine the viability of the cells.
# [4] = system: E. coli BAA 2469 (NDM-1 positive); assay: Murine bloodstream infection model; assay type: in vivo, male CD-1 mice; conditions: 60-min IV infusion, readout 9 h, below the limit of detection
# Procedure: Male JVC-cannulated CD-1 mice were infected intraperitoneally with E. coli BAA2469. At t = 1 h and t = 6 h, SMT-738 was intravenously infused over 60 min (BID). The mice from the pre-treatment group were euthanized at 1 h post-infection. All remaining mice were euthanized at 9 h post-infection, and blood samples were collected via cardiac puncture. Blood samples were serially diluted in PBS and plated onto cystine-lactose-electrolyte-deficient (CLED) agar. The viable bacterial burden for each sample was determined following overnight incubation at 37°C. A Kruskal-Wallis statistical test was performed.
# [5] = system: human lymphoblastoid TK6 cells; assay: GreenScreen genotoxicity assay; assay type: cell-based; conditions: top concentration of 500 µM (= 196.85 µg/mL)
# Procedure: The standard GreenScreen genotoxcity assay was performed by Cyprotex, UK. The assay uses two strains of human lymphoblastoid TK6 cells, the test strain (GenM-[…]), and the non-fluorescent control strain (GenM-C01). Incorporated in the test strain is a patented green fluorescent protein (GFP) reporter system that exploits the proper regulation of the GADD45a gene, which mediates the adaptive response to genotoxic stress.
# E. coli UTI89 = assay: Murine UTI infection model; assay type: in vivo, female C3H/HeN mice; conditions: urine and kidney, 20 mg/kg QD or BID, 60-min IV infusion over 3 days, readout 96 h; below the limit of detection
# Procedure: Female JVC (jugular venous catheter)-cannulated C3H/HeN mice were placed on drinking water which was supplemented with 5% glucose solution prior to infection. Mice were infected transurethrally with E. coli UTI89 following published methods. SMT-738 was intravenously infused over 60 min once (QD) or twice (BID, 4 h after the end of first infusion) per day for 3 days starting 24 h post-inoculation. The mice from pre-treatment group were euthanized (with an overdose of pentobarbitone) at 24 h, the remaining mice were euthanized at 96 h post-infection. The kidney, bladder, and urine were collected and quantitatively cultured by plating serial dilutions on appropriate media; CFU were counted after overnight incubation at 37°C. A Kruskal-Wallis statistical test was performed.
# [6] = system: UPEC (E. coli NCTC 13441); assay: Frequency of resistance determination, E. coli; assay type: cell-based, Escherichia coli; conditions: for FoR Range: experiments with colonies observed
# Procedure: as §1
# K. pneumoniae NCTC 13438 = assay: Time-kill experiment, K. pneumoniae; assay type: cell-based, Klebsiella pneumoniae; conditions: 2× and 4× the MIC
# Procedure: as §2
# [7] = single-step selection at 4× and 8× the MIC, after 24 and 48 h
structure (smiles),measurement,setting,value
Cc1cnccc1-c1[nH]c(N)nc1-c1ccc2c(c1)N(C(=O)C(C)(C)N)CCO2 [SMT-738],LoD Range,"[1]; 4× MICref, 24 h",< 2.26E-09
same,FoR Range,"[1]; 4× MICref, 48 h",1.50E-09
same,LoD Range,"[1]; 4× MICref, 48 h",< 2.26E-09
same,LoD Range,"[1]; 8× MICref, 24 h",< 2.26E-09
same,FoR Range,"[1]; 8× MICref, 48 h",3.75E-10
same,LoD Range,"[1]; 8× MICref, 48 h",< 2.26E-09
same,Frequency of resistance (FoR),[1]; [7],≤ 10^−9
same,MIC,[2],> 128 µg/mL
same,Solubility,[3],> 20 mg/mL
same,re-growth over the 24-h timepoint,E. coli NCTC 13441,no observed re-growth
same,timepoint at which bactericidal activity was displayed,E. coli NCTC 13441,2 h
same,reduction of viability,E. coli NCTC 13441; 2-h timepoint,> 3 log10 CFU/mL
same,IC50,HEK293,> 200 µM
same,cytotoxicity IC50,HEK293,> 78.74 µg/mL
same,efficacy in the blood,[4]; 10 mg/kg BID,almost as efficacious as the 20 mg/kg BID dose
same,reduction of bacterial burden compared to pre-treatment,"[4]; blood, 20 mg/kg BID",4 log10
same,genotoxicity,[5],No toxicity was observed
same,reduction of bacterial burden compared to pre-treatment,E. coli UTI89,5–6 log10
same,FoR Range,"[6]; 4× MICref, 48 h",1.52E-09
same,FoR Range,"[6]; 8× MICref, 24 h",7.20E-10
same,Frequency of resistance (FoR),[6]; [7],≤ 10^−9
same,bacterial burden following 24-h exposure,K. pneumoniae NCTC 13438,below the limit of detection
same,timepoint at which bactericidal activity was observed,K. pneumoniae NCTC 13438,4 h
